# Test results from patent publication US20230312562A1, “TETRAHYDRO-3H-PYRAZOLO QUINOLONE AND TETRAHYDRO-3H-PYRROLO[3,2-F]QUINOLINE -CONTAINING COMPOUNDS AND USES THEREOF” (Purdue Research Foundation, priority 2020, published 2023).
# Marks after values point to notes of the source that are not given here.
# Key:
# [1] = test system: MDA-MB-435; test: NCI-60 sulforhodamine B assay, MDA-MB-435; type: cell-based; conditions: MDA-MB-435, melanoma, 48 h; for GI50: Homo sapiens
# Experimental: (§1) Compounds HSD1787, 22, 23 and 27 were sent to the National Cancer Institute (NCI), Bethesda, Maryland (Drug Evaluation Branch), to evaluate the effects of compounds on the NCI-60 cell panel. According to the NCI protocol, the compounds were evaluated at five concentrations (10-fold dilutions) with the highest concentration being 100 μM and the incubation period was 48 h. A sulforhodamine B assay was used to assay the effects of the compounds on the cancer cells. […] The most sensitive cell lines (total growth inhibition, TGI, could be achieved with concentrations less than 1 μM of some of the compounds) were MDA-MB-435 (melanoma), SF-539 (glioma), A498 (renal), MDA-MB-468 (breast), OVCAR-3 (ovarian), NCI-H522 (non-small cell lung cancer). On the other hand, UACC-257 and SK-MEL-28 (both melanoma), TK-10 (renal), OVCAR-4 (ovarian) and T-47D (breast) were resistant to the compounds as 10 μM could not cause total growth inhibition (Table 2). […] This is in line with current appreciation that tumor mutational burden and not necessarily the anatomical origin of the tumor determines treatment strategies or outcomes.
# (§2) According to the National Cancer Institute, Bethesda, Maryland (the protocol of the Drug Evaluation Branch), the effects of compounds are measured as follows: Cell suspensions are diluted to a target cell density of 5000-40,000 cells per well (based on cell growth characteristics) in a 96-well microtiter plates. The test compounds were evaluated at five concentrations (10-fold dilutions) with the highest concentration being 100 μM. The incubation period was 48 h under 5% carbon dioxide atmosphere and 100% humidity. A sulforhodamine B assay was used to assay the cells. Optical densities of the wells were read by a plate reader the optical densities were processed into GI50 (the concentration that causes 50% growth inhibition).
# (§3) The NCI renamed the IC50 value, the concentration of compound that causes 50% growth inhibition, as follows:
# (§4) The control is the well not treated with test agent (https://dtp.cancer.gov/databases_tools/docs/compare/compare_methodology.htm).
# [2] = test system: K-562; test: NCI-60 sulforhodamine B assay, K-562; type: cell-based; conditions: Homo sapiens, K562; K-562, leukemia, 48 h
# Experimental: as §1, §2, §3, §4
# [3] = test system: SF-539; test: NCI-60 sulforhodamine B assay, SF-539; type: cell-based; conditions: SF-539, CNS, 48 h; for GI50: Homo sapiens
# Experimental: as §1, §2, §3, §4
# [4] = test system: MCF7; test: NCI-60 sulforhodamine B assay, MCF7; type: cell-based; conditions: MCF7, breast, 48 h; for GI50: Homo sapiens
# Experimental: as §1, §2, §3, §4
# [5] = test system: A498; test: NCI-60 sulforhodamine B assay, A498; type: cell-based; conditions: A498, renal, 48 h; for GI50: Homo sapiens
# Experimental: as §1, §2, §3, §4
# [6] = test system: MDA-MB-468; test: NCI-60 sulforhodamine B assay, MDA-MB-468; type: cell-based; conditions: MDA-MB-468, breast, 48 h; for GI50: Homo sapiens
# Experimental: as §1, §2, §3, §4
# [7] = test system: SR; test: NCI-60 sulforhodamine B assay, SR; type: cell-based; conditions: Homo sapiens, lymphoma, 48 h
# Experimental: as §1, §2, §3, §4
# [8] = test system: SF-295; test: NCI-60 sulforhodamine B assay, SF-295; type: cell-based; conditions: SF-295, CNS, 48 h; for GI50: Homo sapiens
# Experimental: as §1, §2, §3, §4
# [9] = test system: Ovcar-3; test: NCI-60 sulforhodamine B assay, Ovcar-3; type: cell-based; conditions: Ovcar-3, ovarian, 48 h; for GI50: Homo sapiens
# Experimental: as §1, §2, §3, §4
# [10] = test system: NCI-H522; test: NCI-60 sulforhodamine B assay, NCI-H522; type: cell-based; conditions: NCI-H522, non-small cell lung, 48 h; for GI50: Homo sapiens
# Experimental: as §1, §2, §3, §4
# [11] = test system: Ovcar-8; test: NCI-60 sulforhodamine B assay, Ovcar-8; type: cell-based; conditions: Homo sapiens; Ovcar-8, ovarian, 48 h
# Experimental: as §1, §2, §3, §4
# [12] = test system: NCI/ADR-RES; test: NCI-60 sulforhodamine B assay, NCI/ADR-RES; type: cell-based; conditions: ovarian, 48 h; for GI50: Homo sapiens
# Experimental: as §1, §2, §3, §4
# [13] = test system: UACC-257; test: NCI-60 sulforhodamine B assay, UACC-257; type: cell-based; conditions: Homo sapiens; UACC-257, melanoma, 48 h
# Experimental: as §1, §2, §3, §4
# [14] = test system: TK-10; test: NCI-60 sulforhodamine B assay, TK-10; type: cell-based; conditions: Homo sapiens; TK-10, renal, 48 h
# Experimental: as §1, §2, §3, §4
# [15] = test system: Ovcar-4; test: NCI-60 sulforhodamine B assay, Ovcar-4; type: cell-based; conditions: Homo sapiens; Ovcar-4, ovarian, 48 h
# Experimental: as §1, §2, §3, §4
# [16] = test system: SK-MEL-28; test: NCI-60 sulforhodamine B assay, SK-MEL-28; type: cell-based; conditions: Homo sapiens; SK-MEL-28, melanoma, 48 h
# Experimental: as §1, §2, §3, §4
# [17] = test system: T-47D; test: NCI-60 sulforhodamine B assay, T-47D; type: cell-based; conditions: Homo sapiens, T47D, breast, 48 h
# Experimental: as §1, §2, §3, §4
# [18] = test system: NCI60 cell lines; test: NCI-60 cell panel, summary statements; type: cell-based; conditions: melanoma, renal, breast, ovarian and leukemia cancer cell lines; read-out: GI50 values as low as
# Experimental: as §1, §2, §3, §4
# [19] = test system: MDA-MB-231; test: Inhibition of MDA-MB-231 viability/growth at 1 μM, 72 h; type: cell-based; conditions: Homo sapiens, MDA-MB-231; 1 μM compound, 72 h incubation
# [20] = test system: tubulin; test: Inhibition of tubulin polymerization; type: biochemical; conditions: at 10 μM; similar to inhibition by colchicine
SMILES,GI50 [1] [nM],GI50 [2] [nM],GI50 [3] [nM],TGI (total growth inhibition) [3],GI50 [4] [nM],TGI (total growth inhibition) [5],GI50 [5] [nM],GI50 [6] [nM],GI50 [7] [nM],GI50 [8] [nM],GI50 [9] [nM],GI50 [10] [nM],TGI (total growth inhibition) [10],GI50 [11] [nM],GI50 [12] [nM],TGI (total growth inhibition) [12] [nM],GI50 [13] [nM],GI50 [14] [nM],GI50 [15] [nM],inhibition at 1 µM [19] [%],further results
"Nc1n[nH]c2cc(F)c([C@@H]3Nc4c(F)cc5[nH]ncc5c4[C@H]4[C@@H]5CC[C@@H](C5)[C@H]43)cc12 (stereo in doubt) [Compound 23, 6-Fluoro-5-(5-fluoro-6,7,7a,8,9,10,11,11a-octahydro-3H-8,11-methanopyrazolo[4,3-a]phenanthridin-7-yl)-1H-indazol-3-amine]",84.6,110,85.2,0.270 µM,131,0.2 µM,69,86.5,131,91.5,103,105,6.60 µM,142,150,5810,5660,5720,1170,,TGI (total growth inhibition) [1]: 0.231 µM; TGI (total growth inhibition) [4]: 8330 nM; TGI (total growth inhibition) [8]: 3990 nM; TGI (total growth inhibition) [9]: 4100 nM; GI50 [16]: 3680 nM; GI50 [17]: > 10000 nM; GI50 [18]: ≥ 30 nM
"Nc1n[nH]c2cc(F)c([C@@H]3Nc4ccc5[nH]ncc5c4[C@H]4[C@@H]5CC[C@@H](C5)[C@H]43)cc12 (stereo in doubt) [Compound 27, 6-Fluoro-5-(6,7,7a,8,9,10,11,11a-octahydro-3H-8,11-methanopyrazolo[4,3-a]phenanthridin-7-yl)-1H-indazol-3-amine]",94.3,92.2,114,0.304^d μM,137,0.280^d μM,71.4,133,59.8,139,138,109,0.544^d μM,194,177,1210,2700,2020,416,~100,TGI (total growth inhibition) [1]: 0.283^d μM; TGI (total growth inhibition) [4]: 8440 nM; TGI (total growth inhibition) [6]: 0.424^d μM; TGI (total growth inhibition) [8]: 5770 nM; GI50 [16]: 352 nM; GI50 [17]: > 10000 nM; GI50 [18]: ≥ 30 nM
"Nc1n[nH]c2ccc([C@@H]3Nc4c(F)cc5[nH]ncc5c4[C@H]4[C@@H]5CC[C@@H](C5)[C@H]43)cc12 (stereo in doubt) [Compound 22, 5-(5-fluoro-6,7,7a,8,9,10,11,11a-octahydro-3H-8,11-methanopyrazolo[4,3-a]phenanthridin-7-yl)-1H-indazol-3-amine]",34.8,47.7,167,0.590 µM,61.6,0.636 µM,72.2,78.8,87.7,50,220,115,1.92 µM,448,198,921,5010,10700,3340,79,TGI (total growth inhibition) [6]: 0.468 µM; TGI (total growth inhibition) [9]: 806 nM; GI50 [16]: 1400 nM; GI50 [17]: > 10000 nM; GI50 [18]: ≥ 30 nM
"c1csc([C@@H]2Nc3ccc4[nH]ncc4c3[C@H]3[C@@H]4CC[C@@H](C4)[C@H]32)c1 (stereo in doubt) [Compound 8, 7-(Thiophen-2-yl)-6,7,7a,8,9,10,11,11a-octahydro-3H-8,11-methanopyrazolo[4,3-a]phenanthridine]",,,,,,,,,,,,,,,,,,,,13,
"c1cc2cn[nH]c2cc1[C@@H]1Nc2ccc3[nH]ncc3c2[C@H]2C3CC[C@@H](C3)[C@@H]12 (stereo in doubt) [Compound 17, 7-(1H-Indazol-6-yl)-6,7,7a,8,9,10,11,11a-octahydro-3H-8,11-methanopyrazolo[4,3-a]phenanthridine]",,,,,,,,,,,,,,,,,,,,91,
"Nc1n[nH]c2ccc([C@@H]3Nc4ccc5[nH]ncc5c4[C@H]4C5CC[C@@H](C5)[C@@H]34)cc12 (stereo in doubt) [HSD1787, 5-(6,7,7a,8,9,10,11,11a-Octahydro-3H-8,11-methanopyrazolo[4,3-a]phenanthridin-7-yl)-1H-indazol-3-amine]",124,264,232,0.654 µM,375,0.646 µM,179,269,233,340,243,210,0.868 µM,479,480,> 10000,> 10000,3860,2140,95,TGI (total growth inhibition) [1]: 0.329 µM; TGI (total growth inhibition) [6]: 2.73 µM; TGI (total growth inhibition) [9]: 634 nM; GI50 [16]: 934 nM; GI50 [17]: > 10000 nM; Inhibition of the polymerization of tubulin [20]: inhibited the polymerization of tubulin
